Data as given in paper PMC2806030, “Inhibition of mammalian S6 kinase by resveratrol suppresses autophagy” (Aging (Albany NY), 2009).

What was measured:
[1] = biological target: T1, Pim-2 (Homo sapiens, UniProt Q9P1W9); assay: in vitro kinase screen (Upstate KinaseProfiler), single dose […]; format: biochemical
T1 construct: gene PIM2

[2] = biological target: T2, Pim-1 (Homo sapiens, UniProt P11309); assay: as above; format: biochemical
T2 construct: gene PIM1

[3] = biological target: NLK (Homo sapiens, UniProt Q9UBE8); assay: as above; format: biochemical
Chain of NLK (Q9UBE8 whole entry): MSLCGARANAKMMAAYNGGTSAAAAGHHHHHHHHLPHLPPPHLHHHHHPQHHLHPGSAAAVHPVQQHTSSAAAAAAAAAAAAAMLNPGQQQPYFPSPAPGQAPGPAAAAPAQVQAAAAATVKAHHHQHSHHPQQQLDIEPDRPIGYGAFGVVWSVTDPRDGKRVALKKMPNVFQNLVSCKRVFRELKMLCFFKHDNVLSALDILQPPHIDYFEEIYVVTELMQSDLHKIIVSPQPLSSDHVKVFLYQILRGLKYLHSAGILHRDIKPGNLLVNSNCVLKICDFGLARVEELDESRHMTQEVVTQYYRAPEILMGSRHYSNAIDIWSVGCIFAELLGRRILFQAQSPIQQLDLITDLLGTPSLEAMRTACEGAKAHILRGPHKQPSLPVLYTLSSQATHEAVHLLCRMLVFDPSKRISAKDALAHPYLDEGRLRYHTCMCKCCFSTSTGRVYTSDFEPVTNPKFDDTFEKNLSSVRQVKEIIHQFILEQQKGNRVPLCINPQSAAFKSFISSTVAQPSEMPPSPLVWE

[4] = biological target: T3, TrkA(h) (Homo sapiens, UniProt P04629); assay: biochemical; set-up: Upstate KinaseProfiler in vitro kinase activity assay, per cent of DMSO control; conditions: read-out: Activity (% of Control)
T3 construct: gene NTRK1
How it was run: (§1)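 Profiling done with Upstate KinaseProfiler service across 100 kinases, resveratrol tested at 20 μM; activity expressed relative to control.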

[5] = biological target: PAK4(h) (Homo sapiens, UniProt O96013); assay: biochemical; set-up: Upstate KinaseProfiler in vitro kinase activity assay, per cent of DMSO control; conditions: read-out: Activity (% of Control)
Chain of PAK4(h) (O96013 whole entry): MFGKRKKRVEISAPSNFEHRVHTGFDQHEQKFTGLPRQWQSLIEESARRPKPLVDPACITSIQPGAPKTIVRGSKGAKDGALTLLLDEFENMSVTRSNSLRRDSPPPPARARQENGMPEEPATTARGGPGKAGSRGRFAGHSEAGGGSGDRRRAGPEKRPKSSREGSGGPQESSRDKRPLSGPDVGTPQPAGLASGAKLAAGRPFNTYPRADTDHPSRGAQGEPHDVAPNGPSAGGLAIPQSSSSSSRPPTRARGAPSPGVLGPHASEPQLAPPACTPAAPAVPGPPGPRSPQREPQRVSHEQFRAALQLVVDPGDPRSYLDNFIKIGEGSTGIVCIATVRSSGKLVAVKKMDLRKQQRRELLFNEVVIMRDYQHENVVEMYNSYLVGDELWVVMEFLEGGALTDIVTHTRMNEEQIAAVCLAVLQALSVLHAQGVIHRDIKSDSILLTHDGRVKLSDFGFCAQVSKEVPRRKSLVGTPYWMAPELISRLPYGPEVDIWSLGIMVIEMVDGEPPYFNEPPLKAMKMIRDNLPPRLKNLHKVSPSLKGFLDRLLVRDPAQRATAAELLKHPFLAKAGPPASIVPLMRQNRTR
How it was run: as §1

[6] = biological target: T4, PKD2(h) (Homo sapiens, UniProt Q9BZL6); assay: biochemical; set-up: Upstate KinaseProfiler in vitro kinase activity assay, per cent of DMSO control; conditions: read-out: Activity (% of Control)
T4 construct: gene PRKD2
T4 sequence (Q9BZL6 whole entry): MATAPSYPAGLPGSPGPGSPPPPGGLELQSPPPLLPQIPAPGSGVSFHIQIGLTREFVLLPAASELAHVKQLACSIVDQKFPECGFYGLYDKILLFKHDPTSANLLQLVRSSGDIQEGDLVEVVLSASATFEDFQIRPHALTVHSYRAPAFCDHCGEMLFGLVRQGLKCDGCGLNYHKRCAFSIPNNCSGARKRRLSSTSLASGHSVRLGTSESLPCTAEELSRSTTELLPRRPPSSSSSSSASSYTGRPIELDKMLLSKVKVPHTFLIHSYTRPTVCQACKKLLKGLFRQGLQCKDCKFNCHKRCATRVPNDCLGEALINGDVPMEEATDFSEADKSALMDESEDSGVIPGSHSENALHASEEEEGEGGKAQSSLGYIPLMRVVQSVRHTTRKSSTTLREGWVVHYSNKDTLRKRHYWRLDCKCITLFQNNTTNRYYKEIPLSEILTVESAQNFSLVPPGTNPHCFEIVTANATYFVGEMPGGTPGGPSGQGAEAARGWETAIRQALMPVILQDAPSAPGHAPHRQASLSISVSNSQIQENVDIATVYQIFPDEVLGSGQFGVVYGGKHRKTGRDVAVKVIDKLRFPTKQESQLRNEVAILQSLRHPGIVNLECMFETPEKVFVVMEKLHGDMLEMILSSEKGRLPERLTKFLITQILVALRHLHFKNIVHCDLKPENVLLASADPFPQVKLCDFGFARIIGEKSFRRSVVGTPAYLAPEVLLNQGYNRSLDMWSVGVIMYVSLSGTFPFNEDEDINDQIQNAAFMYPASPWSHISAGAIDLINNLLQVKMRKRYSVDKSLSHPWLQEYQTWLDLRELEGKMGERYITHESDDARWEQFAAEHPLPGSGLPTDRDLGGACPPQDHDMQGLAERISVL
How it was run: as §1

[7] = biological target: TBK1(h) (Homo sapiens, UniProt Q9UHD2); assay: biochemical; set-up: Upstate KinaseProfiler in vitro kinase activity assay, per cent of DMSO control; conditions: read-out: Activity (% of Control)
Chain of TBK1(h) (Q9UHD2 whole entry): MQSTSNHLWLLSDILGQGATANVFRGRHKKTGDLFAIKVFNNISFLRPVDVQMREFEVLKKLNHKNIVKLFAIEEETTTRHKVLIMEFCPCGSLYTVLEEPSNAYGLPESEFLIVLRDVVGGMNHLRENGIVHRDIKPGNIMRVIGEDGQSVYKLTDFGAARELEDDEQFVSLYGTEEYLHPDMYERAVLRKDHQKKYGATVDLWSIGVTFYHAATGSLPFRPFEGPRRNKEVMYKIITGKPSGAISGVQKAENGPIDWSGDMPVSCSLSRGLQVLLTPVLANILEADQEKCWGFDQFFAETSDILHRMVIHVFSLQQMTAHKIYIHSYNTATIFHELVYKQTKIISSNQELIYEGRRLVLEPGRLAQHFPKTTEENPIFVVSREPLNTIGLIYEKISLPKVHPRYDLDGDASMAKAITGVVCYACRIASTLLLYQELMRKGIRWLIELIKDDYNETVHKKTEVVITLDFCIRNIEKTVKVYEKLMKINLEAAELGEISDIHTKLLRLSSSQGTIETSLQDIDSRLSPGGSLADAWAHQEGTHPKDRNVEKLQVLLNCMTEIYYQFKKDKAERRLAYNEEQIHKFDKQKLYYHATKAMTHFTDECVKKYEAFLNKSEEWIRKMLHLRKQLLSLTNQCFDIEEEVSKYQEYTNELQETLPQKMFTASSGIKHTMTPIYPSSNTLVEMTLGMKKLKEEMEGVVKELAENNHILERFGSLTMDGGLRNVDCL
How it was run: as §1

[8] = biological target: T5, PKBα(h) (Homo sapiens, UniProt P31749); assay: biochemical; set-up: Upstate KinaseProfiler in vitro kinase activity assay, per cent of DMSO control; conditions: read-out: Activity (% of Control)
T5 construct: gene AKT1
T5 sequence (P31749 whole entry): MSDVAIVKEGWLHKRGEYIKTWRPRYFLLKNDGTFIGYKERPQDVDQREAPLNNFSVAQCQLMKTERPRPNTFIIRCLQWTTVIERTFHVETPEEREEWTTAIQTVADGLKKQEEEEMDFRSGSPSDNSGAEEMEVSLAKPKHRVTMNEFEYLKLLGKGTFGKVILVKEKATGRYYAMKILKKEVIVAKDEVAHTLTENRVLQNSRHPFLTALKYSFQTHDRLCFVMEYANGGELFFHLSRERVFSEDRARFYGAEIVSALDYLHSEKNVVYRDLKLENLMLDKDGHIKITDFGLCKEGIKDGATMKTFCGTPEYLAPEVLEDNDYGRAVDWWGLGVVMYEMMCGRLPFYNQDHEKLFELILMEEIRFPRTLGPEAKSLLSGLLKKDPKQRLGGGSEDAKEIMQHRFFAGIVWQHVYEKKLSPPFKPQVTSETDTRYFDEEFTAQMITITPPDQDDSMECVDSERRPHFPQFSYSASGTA
How it was run: as §1

[9] = biological target: NEK6(h) (Homo sapiens, UniProt Q9HC98); assay: biochemical; set-up: Upstate KinaseProfiler in vitro kinase activity assay, per cent of DMSO control; conditions: read-out: Activity (% of Control)
Chain of NEK6(h) (Q9HC98 whole entry): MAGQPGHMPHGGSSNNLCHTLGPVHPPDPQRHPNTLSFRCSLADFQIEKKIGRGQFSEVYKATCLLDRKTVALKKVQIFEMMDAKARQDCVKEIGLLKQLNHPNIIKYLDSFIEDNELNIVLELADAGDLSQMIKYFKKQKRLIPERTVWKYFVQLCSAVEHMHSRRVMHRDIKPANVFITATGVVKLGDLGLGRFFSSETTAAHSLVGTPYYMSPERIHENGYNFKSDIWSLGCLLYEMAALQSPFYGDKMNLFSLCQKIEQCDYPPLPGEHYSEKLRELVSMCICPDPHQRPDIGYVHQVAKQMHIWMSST
How it was run: as §1

[10] = biological target: T6, PDGFRα(h) (Homo sapiens, UniProt P16234); assay: biochemical; set-up: Upstate KinaseProfiler in vitro kinase activity assay, per cent of DMSO control; conditions: read-out: Activity (% of Control)
T6 construct: gene PDGFRA
T6 sequence (P16234 whole entry): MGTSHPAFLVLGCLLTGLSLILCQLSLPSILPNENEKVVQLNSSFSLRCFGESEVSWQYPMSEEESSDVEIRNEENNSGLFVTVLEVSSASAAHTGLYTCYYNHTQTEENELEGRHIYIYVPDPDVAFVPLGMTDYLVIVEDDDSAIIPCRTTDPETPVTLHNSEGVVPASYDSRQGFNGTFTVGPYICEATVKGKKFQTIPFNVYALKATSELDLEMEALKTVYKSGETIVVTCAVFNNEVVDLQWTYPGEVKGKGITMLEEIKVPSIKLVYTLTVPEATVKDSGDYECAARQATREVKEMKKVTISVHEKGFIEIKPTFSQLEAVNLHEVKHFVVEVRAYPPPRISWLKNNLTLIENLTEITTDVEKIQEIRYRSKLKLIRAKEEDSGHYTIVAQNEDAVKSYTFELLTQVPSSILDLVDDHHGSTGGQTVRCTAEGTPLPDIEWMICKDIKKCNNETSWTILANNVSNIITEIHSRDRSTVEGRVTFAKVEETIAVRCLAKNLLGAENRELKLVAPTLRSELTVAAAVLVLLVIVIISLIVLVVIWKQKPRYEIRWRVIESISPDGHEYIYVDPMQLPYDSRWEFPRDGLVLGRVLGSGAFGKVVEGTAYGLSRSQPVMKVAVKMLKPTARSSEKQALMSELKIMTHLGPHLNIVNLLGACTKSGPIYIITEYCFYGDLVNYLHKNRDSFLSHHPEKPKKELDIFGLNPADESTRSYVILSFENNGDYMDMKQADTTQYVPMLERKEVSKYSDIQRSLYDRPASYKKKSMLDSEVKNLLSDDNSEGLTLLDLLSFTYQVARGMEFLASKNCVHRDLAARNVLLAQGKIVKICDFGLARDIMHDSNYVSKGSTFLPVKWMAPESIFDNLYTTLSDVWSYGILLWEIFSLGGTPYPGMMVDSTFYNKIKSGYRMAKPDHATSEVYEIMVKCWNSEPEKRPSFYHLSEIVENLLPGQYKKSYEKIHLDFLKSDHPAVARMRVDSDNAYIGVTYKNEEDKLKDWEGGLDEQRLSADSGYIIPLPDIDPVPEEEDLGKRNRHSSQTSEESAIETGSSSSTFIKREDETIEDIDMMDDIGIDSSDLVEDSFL
How it was run: as §1

[11] = biological target: PAK2(h) (Homo sapiens, UniProt Q13177); assay: biochemical; set-up: Upstate KinaseProfiler in vitro kinase activity assay, per cent of DMSO control; conditions: read-out: Activity (% of Control)
How it was run: as §1

T2 sequence (P11309 whole entry): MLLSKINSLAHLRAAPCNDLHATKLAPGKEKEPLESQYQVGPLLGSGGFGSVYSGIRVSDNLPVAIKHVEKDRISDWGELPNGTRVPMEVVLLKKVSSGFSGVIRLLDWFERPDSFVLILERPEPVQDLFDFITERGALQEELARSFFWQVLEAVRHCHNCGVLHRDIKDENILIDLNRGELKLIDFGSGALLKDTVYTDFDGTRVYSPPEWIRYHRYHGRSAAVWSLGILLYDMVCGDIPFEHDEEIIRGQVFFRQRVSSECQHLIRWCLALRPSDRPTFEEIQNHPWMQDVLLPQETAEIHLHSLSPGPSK

Oc1ccc(/C=C/c2cc(O)cc(O)c2)cc1 [Res, resveratrol]
in vitro kinase screen (Upstate KinaseProfiler), single dose 20 μM [1]: Jak2, NLK, p70 S6 kinase (S6K1), Pim-1, and Pim-2 emerged as potential targets of resveratrol | in vitro kinase screen (Upstate KinaseProfiler), single dose 20 μM [2]: Jak2, NLK, p70 S6 kinase (S6K1), Pim-1, and Pim-2 emerged as potential targets of resveratrol | in vitro kinase screen (Upstate KinaseProfiler), single dose 20 μM [3]: Jak2, NLK, p70 S6 kinase (S6K1), Pim-1, and Pim-2 emerged as potential targets of resveratrol | remaining activity at 20 µM [4]: 31 ± 3% | remaining activity at 20 µM [5]: 103 ± 4% | remaining activity at 20 µM [6]: 88 ± 5% | remaining activity at 20 µM [7]: 62 ± 4% | remaining activity at 20 µM [8]: 94 ± 2% | remaining activity at 20 µM [9]: 140 ± 16% | remaining activity at 20 µM [10]: 114 ± 2% | remaining activity at 20 µM [11]: 98 ± 4%
